The supplement of paper PMC13380429

What was measured:
Settings in all cases: 72 h
Caco-2 [1] = assay: cell viability relative to DMSO; higher = less toxic
Calu-3 [2] = assay: as above
HepG2 [3] = assay: as above
U2OS [4] = assay: as above
Vero E6 [5] = assay: as above
Caco-2 [6] = assay: relative viability EC50 (midpoint between 100% and the lowest measured viability); higher = less toxic
Calu-3 [7] = assay: as above
U2OS [8] = assay: as above
Vero E6 [9] = assay: as above
Caco-2 [10] = assay: drug sensitivity score (DSS) for viability; higher = more toxic; extreme values may be limits of the assay
Calu-3 [11] = assay: as above
HepG2 [12] = assay: as above
U2OS [13] = assay: as above
Vero E6 [14] = assay: as above
HepG2 [15] = assay: relative viability EC50 (midpoint between 100% and the lowest measured viability); higher = less toxic

Compound	cell viability (Caco-2 [1]; 1 nM)	cell viability (Caco-2 [1]; 10 nM)	cell viability (Caco-2 [1]; 100 nM)	cell viability (Caco-2 [1]; 1000 nM)	cell viability (Caco-2 [1]; 10000 nM)	cell viability (Calu-3 [2]; 1 nM)	cell viability (Calu-3 [2]; 10 nM)	cell viability (Calu-3 [2]; 100 nM)	cell viability (Calu-3 [2]; 1000 nM)	cell viability (Calu-3 [2]; 10000 nM)	cell viability (HepG2 [3]; 1 nM)	cell viability (HepG2 [3]; 10 nM)	cell viability (HepG2 [3]; 100 nM)	cell viability (HepG2 [3]; 1000 nM)	cell viability (HepG2 [3]; 10000 nM)	cell viability (U2OS [4]; 1 nM)	cell viability (U2OS [4]; 10 nM)	cell viability (U2OS [4]; 100 nM)	cell viability (U2OS [4]; 1000 nM)	cell viability (U2OS [4]; 10000 nM)	cell viability (Vero E6 [5]; 1 nM)	cell viability (Vero E6 [5]; 10 nM)	cell viability (Vero E6 [5]; 100 nM)	cell viability (Vero E6 [5]; 1000 nM)	cell viability (Vero E6 [5]; 10000 nM)	relative viability EC50 (Caco-2 [6])	relative viability EC50 (Calu-3 [7])	relative viability EC50 (U2OS [8])	relative viability EC50 (Vero E6 [9])	drug sensitivity score (Caco-2 [10])	drug sensitivity score (Calu-3 [11])	drug sensitivity score (HepG2 [12])	drug sensitivity score (U2OS [13])	drug sensitivity score (Vero E6 [14])	relative viability EC50 (HepG2 [15])
CC(C)C[C@@H](C(=O)N[C@@H](Cc1ccc(OCc2ccccc2)cc1)C(=O)NC(C)(C)C)N(C)Cc1ccc(C(C)(C)C)cc1	88.8%	95.9%	94.1%	100%	87.5%	93.4%	105%	97.5%	111%	87.8%	107%	101%	93.5%	99.1%	68%	97.4%	101%	97.5%	101%	85.5%	103%	103%	106%	97.8%	95.7%	> 10 µM	> 10 µM	> 10 µM	> 10 µM	0	0	1.6	0.1	0	–
Cc1cc(C)c(CNC(=O)c2cc(-c3ccc(CN4CCOCC4)cc3)cc3c2cnn3C2CCCC2)c(=O)[nH]1	102%	94.2%	96.4%	91.1%	92%	98%	96.9%	104%	92%	96.3%	108%	102%	100%	97.3%	85.3%	99%	94.5%	101%	94.4%	98.7%	–	–	–	–	–	> 10 µM	> 10 µM	> 10 µM	–	0	0	0.5	0	–	> 10 µM
Cc1cnc(NC(=O)Nc2cc(Br)c(C)cc2OC[C@@H]2CNCCO2)cn1	102%	94.7%	96.9%	87.5%	37.8%	90.7%	106%	102%	76.9%	63%	106%	104%	97.9%	59.1%	33.7%	100%	99.2%	98%	62.2%	4.8%	101%	105%	102%	97.2%	71.1%	1.73 µM	–	1.2 µM	–	5.4	4.5	8.6	10.2	1.7	0.764 µM
Nc1nc(NCCNc2ncc(-n3ccnc3)c(-c3ccc(Cl)cc3Cl)n2)ccc1[N+](=O)[O-]	96.7%	99.9%	100%	111%	111%	96.3%	98.1%	104%	111%	112%	–	–	–	–	–	96.9%	101%	96.7%	103%	110%	96.1%	98%	94.2%	97.1%	106%	> 10 µM	> 10 µM	> 10 µM	> 10 µM	0	0	–	0	0	–
FC(F)(F)Oc1ccc2nc(-c3ccc(OCCOCCOc4ccc(-c5nc6ccc(OC(F)(F)F)cc6[nH]5)nc4)cn3)[nH]c2c1 [AI-10-49]	95.2%	95.4%	90.9%	82%	56.7%	109%	95.7%	98.2%	98.3%	93.3%	94.7%	93.6%	103%	74.6%	18.7%	98.5%	98.6%	101%	90.5%	80.7%	102%	97%	93.3%	72.8%	56.2%	–	> 10 µM	> 10 µM	–	4.2	0	8.2	1.5	5.6	1.37 µM
C#CC[C@H](c1nc2cc(Cl)ccc2c(=O)n1Nc1ccccc1)N(CCCN)C(=O)c1cccc(Cl)c1F [ARQ-621]	101%	96.6%	93.6%	81.7%	73%	105%	101%	104%	86.7%	78%	93.7%	100%	94.5%	62.2%	26.6%	103%	98.9%	101%	93.4%	42.3%	102%	100%	96.2%	101%	54.9%	–	> 10 µM	2.23 µM	–	3.1	2.1	8.5	4.2	2.3	0.929 µM
Cc1ccccc1NC(=O)Nc1ccc(CC(=O)N(C)[C@@H](CC(C)C)C(=O)NCC[C@H](NC(=O)[C@@H]2CCCN2S(=O)(=O)c2cc(Cl)cc(Cl)c2)C(=O)O)cc1 [BIO-5192]	98%	97.3%	90.5%	99.5%	96.8%	104%	102%	96.5%	108%	104%	–	–	–	–	–	102%	96.2%	95.1%	105%	97.6%	98.3%	93.9%	93.1%	96.7%	109%	> 10 µM	> 10 µM	> 10 µM	> 10 µM	0	0	–	0	0	–
OCCn1cc(-c2ccc3c(c2)CC/C3=N\O)c(-c2ccncc2)n1 [GDC-0879]	98.8%	89.4%	94.1%	101%	104%	102%	94.5%	95.2%	107%	104%	90.6%	100%	87.2%	74.3%	25%	–	–	–	–	–	–	–	–	–	–	> 10 µM	> 10 µM	–	–	0	0	7	–	–	1.45 µM
CNC(=O)[C@H]1O[C@@H](n2cnc3c(NCc4cccc(I)c4)ncnc32)[C@H](O)[C@@H]1O [IB-MECA]	112%	96.2%	99.8%	105%	93.3%	96.3%	98.3%	93.4%	109%	85.3%	107%	68.7%	98.3%	68.8%	88.8%	101%	105%	102%	106%	95.8%	103%	97.1%	99.8%	97%	102%	> 10 µM	> 10 µM	> 10 µM	> 10 µM	0	0.1	3.3	0	0	–
COc1ccccc1N1CCN(CCCCN2C(=O)CCC2=O)CC1 [MM77]	92.4%	102%	83.8%	102%	106%	104%	100%	96.6%	114%	107%	–	–	–	–	–	100%	101%	94.9%	106%	97.2%	94.5%	93.4%	92.7%	94%	110%	> 10 µM	> 10 µM	> 10 µM	> 10 µM	0	0	–	0	0	–
Cn1c(Nc2ccc(C(F)(F)F)cc2)nc2cc(Oc3ccnc(-c4ncc(C(F)(F)F)[nH]4)c3)ccc21 [RAF265]	100%	98.3%	81.8%	66.3%	28.8%	98%	91.2%	94%	70.9%	62.2%	92.1%	94.7%	80%	44.5%	13.2%	94.9%	102%	95.3%	87.3%	46.5%	102%	99.7%	99.8%	77.9%	51.6%	0.721 µM	–	1.59 µM	–	8.8	5.6	13.1	4.9	5.4	0.435 µM
CNC(=O)COC(=O)NCCC1CCN(c2cccc(C)n2)CC1 [SA-47]	90.7%	101%	97.7%	99.3%	94%	98.4%	101%	105%	103%	105%	–	–	–	–	–	92.8%	101%	103%	97.7%	99.2%	85.7%	97.6%	90.7%	92.7%	110%	> 10 µM	> 10 µM	> 10 µM	> 10 µM	0	0	–	0	0	–
CCc1cccc(CC)c1NC1=NCCN1 [ST-91]	102%	101%	96.2%	93.4%	100%	104%	90.2%	96.6%	89.6%	115%	–	–	–	–	–	103%	98.7%	104%	94.8%	99%	98.9%	97.1%	102%	98.3%	93.5%	> 10 µM	> 10 µM	> 10 µM	> 10 µM	0	0	–	0	0	–
CC(=O)[C@@]12O[C@](C)(c3ccccc3)O[C@@H]1C[C@H]1[C@@H]3CCC4=CC(=O)CC[C@]4(C)[C@H]3CC[C@@]12C [algestone-acetophenide]	104%	94.2%	97.5%	100%	78.5%	105%	100%	96.3%	109%	86.4%	98.3%	108%	102%	103%	71.7%	99.7%	95.2%	99.3%	98.4%	91.8%	101%	96.6%	87.5%	92.3%	102%	> 10 µM	> 10 µM	> 10 µM	> 10 µM	0.7	0	1	0	0	–
C1=C2CCCN[C@H]2[C@@H]2C[C@H]1[C@H]1CCCCN1C2 [aloperine]	96.4%	108%	104%	106%	94.4%	91.1%	99.2%	90.7%	85%	83.1%	–	–	–	–	–	96.8%	102%	92.8%	100%	94.1%	102%	100%	104%	99.4%	98.1%	> 10 µM	> 10 µM	> 10 µM	> 10 µM	0	1.4	–	0	0	–
